Source: US11771123B2, “Methods for treating biomass to produce oligosaccharides and related compositions” (Cambridge Glycoscience Ltd, priority 2019, dated 2023)

Experiment: Flow characteristics: timed flow from a vertically stood syringe under gravity
Format: physicochemical
Settings: syringe filled with 20 mL test liquid, room temperature
Protocol: The glucose solutions were made by weighing 6, 12, 18, and 24 g D-glucose respectively and making up with 90° C. water to 30 mL. The flow characteristics were measured by timing the flow rate of 5 mL, and where suitable, 20 mL of the liquids from a vertically stood syringe (BD Plastipak 300613) filled with 20 mL of test liquid under gravity at room temperature.
Sample were analyzed for flow characteristics as described in Example 9.
In the case of `O=C[C@H](O)[C@@H](O)[C@H](O)[C@H](O)CO` [80% w/v glucose, D-glucose], the “Time for 5 mL flow” value is reported as 5 s and the “Time for 20 mL flow” value is reported as 38 s.
With `O=C[C@H](O)[C@@H](O)[C@H](O)[C@H](O)CO` [20% w/v glucose, D-glucose] the “Time for 5 mL flow” value was 2.3 s and the “Time for 20 mL flow” value was 13.5 s.
For `O=C[C@H](O)[C@@H](O)[C@H](O)[C@H](O)CO` [60% w/v glucose, D-glucose], the “Time for 5 mL flow” value was 3 s and the “Time for 20 mL flow” value was 20 s.
In the case of `O=C[C@H](O)[C@@H](O)[C@H](O)[C@H](O)CO` [40% w/v glucose, D-glucose], the “Time for 5 mL flow” value is reported as 2.5 s and the “Time for 20 mL flow” value is reported as 15 s.

Experiment: Glaze formation: dried on glass plate and scored with a knife
Format: physicochemical
Settings: cellobiose alone, 10-320 mM, dried at 37° C.
Protocol: 100 μl of 10-320 mM (10, 20, 40, 80, 160, and 320 mM) cellobiose±1% w/v birchwood xylan was pipetted onto a glass plate. • 2. Samples were dried at 37° C. • 3. Samples were scored with a knife to test whether or not the ingredient settled into a solid glaze. […] With a cellobiose concentration of 160 mM or higher (5.5% w/v, or 550% w/w as compared with xylan) the morphology of the glaze reverted to that without xylan present.
With `O=C[C@H](O)[C@@H](O)[C@H](O[C@@H]1O[C@H](CO)[C@@H](O)[C@H](O)[C@H]1O)[C@H](O)CO` [cellobiose] the Glaze formation was “no firm glaze was formed”.
